Measurements reported in PubChem BioAssay AID1897 (NMMLSC, 2009).
Activity calls are given as the source filed them. No rule for the calls is given here.

Target: Mitogen-activated protein kinase kinase kinase 2 (Homo sapiens) + Dual specificity mitogen-activated protein kinase kinase 5 (Homo sapiens) (UniProt Q9Y2U5+Q13163)
Experiment: inhibitors of MEK5 binding to MEKK2, dose response, biochemical, bead multiplex flow cytometry, wildtype (AID 1897)
Settings: MEK5-MEKK2 PB1 binding; for Ki: measured here: Ki from binding competition

Chain of Mitogen-activated protein kinase kinase kinase 2 (Homo sapiens) + Dual specificity mitogen-activated protein kinase kinase 5 (Homo sapiens) (Q13163 whole entry, looked up): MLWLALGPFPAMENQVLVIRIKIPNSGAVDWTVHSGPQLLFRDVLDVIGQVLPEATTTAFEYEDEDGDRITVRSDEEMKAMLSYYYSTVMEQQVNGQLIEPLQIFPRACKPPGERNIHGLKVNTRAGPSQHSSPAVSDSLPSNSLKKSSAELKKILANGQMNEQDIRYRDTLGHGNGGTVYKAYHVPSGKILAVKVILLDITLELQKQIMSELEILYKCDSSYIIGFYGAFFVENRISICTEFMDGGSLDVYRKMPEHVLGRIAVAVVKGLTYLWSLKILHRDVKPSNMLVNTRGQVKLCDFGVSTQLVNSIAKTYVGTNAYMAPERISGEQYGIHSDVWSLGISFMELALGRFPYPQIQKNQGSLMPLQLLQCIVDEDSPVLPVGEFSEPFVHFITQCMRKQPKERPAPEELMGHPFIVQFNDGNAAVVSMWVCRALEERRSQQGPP
Chain of Mitogen-activated protein kinase kinase kinase 2 (Homo sapiens) + Dual specificity mitogen-activated protein kinase kinase 5 (Homo sapiens) (Q9Y2U5 whole entry, looked up): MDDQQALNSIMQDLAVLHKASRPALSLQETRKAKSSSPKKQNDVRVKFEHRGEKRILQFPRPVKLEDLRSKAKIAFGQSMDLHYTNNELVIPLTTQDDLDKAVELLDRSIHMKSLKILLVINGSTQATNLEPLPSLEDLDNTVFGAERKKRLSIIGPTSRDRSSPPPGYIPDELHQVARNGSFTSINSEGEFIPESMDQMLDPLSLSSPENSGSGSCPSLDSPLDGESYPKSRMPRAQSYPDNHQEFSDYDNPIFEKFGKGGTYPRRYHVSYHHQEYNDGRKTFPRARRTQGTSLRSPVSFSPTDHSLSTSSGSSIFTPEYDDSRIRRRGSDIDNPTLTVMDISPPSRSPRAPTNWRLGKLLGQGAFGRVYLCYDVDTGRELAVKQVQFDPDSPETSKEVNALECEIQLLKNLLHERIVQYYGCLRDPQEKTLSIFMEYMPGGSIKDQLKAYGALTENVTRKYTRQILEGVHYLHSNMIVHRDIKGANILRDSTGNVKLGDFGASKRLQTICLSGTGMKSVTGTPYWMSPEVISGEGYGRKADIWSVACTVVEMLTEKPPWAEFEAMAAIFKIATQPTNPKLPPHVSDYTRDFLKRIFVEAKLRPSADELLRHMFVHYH

Row | EC50 | Ki [µM] | Structure (SMILES)
1 | 1.48 µM | 1.33 | COc1ccc(-n2nc3c(N)n[nH]c3cc2=O)cc1
2 | 4.09 µM | 3.66 | Cc1nn2c(N)csc2nc1=O
3 | 4.59 µM | – | CCCOc1ccc2c(c1)C(=NN=C(N)N)c1cc(OCCC)ccc1-2
4 | 15.1 µM | – | CCCN(CCC)CCNC(=O)c1cc2c(-c3ccc(Cl)cc3)nn(C)c2s1
5 | > 30 µM (inactive) | – | CCCCCCCCCCOC(=O)Cn1c(COc2cccc(C)c2)[n+](C)c2ccccc21
6 | > 30 µM (inactive) | – | COc1ccc(-c2[nH]ncc2CN2CCCCCCC2)c(OC)c1
7 | 2.63 µM | 2.35 | CCN1/C(=C/c2ccc3cc(C)ccc3[n+]2CC)Sc2cc(C)c(C)cc21
8 | > 30 µM (inactive) | – | CCOc1ccc(C2=C/C(=C/c3cccnc3)C(=O)O2)cc1
9 | 1.88 µM | 1.68 | CCN1/C(=C/c2ccc3cc(C)cc(C)c3[n+]2CC)Sc2cc(C)ccc21
10 | 1.15 µM | – | COc1ccc(Cn2cc3c(-c4ccc(F)cc4)nnc-3c3cc(OC)c(OC)cc32)cc1
11 | > 30 µM (inactive) | – | Cc1ccc(-n2cc(CNCCCn3ccnc3C)c(-c3ccc(F)cc3)n2)cc1
12 | 2.82 µM | 2.53 | CCOC(=O)C(C(=O)OCC)c1cc(Br)c2noc3c2c1C(=O)c1ccccc1-3
13 | > 30 µM (inactive) | – | Cc1nc(N)sc1-c1csc(Nc2ncccn2)n1
14 | > 30 µM (inactive) | – | COc1ccc(Cn2c(SCc3ccccc3C)nc3cc(OC)c(OC)cc3c2=N)cc1
15 | 0.53 µM | 0.47 | CCN1/C(=C/C(C)=C/c2sc3ccccc3[n+]2CC)Sc2ccccc21
16 | > 30 µM (inactive) | – | CCN(CC)CCOC(=O)c1ccc(N/C=C(/C#N)c2nc(-c3ccc(OC)c(OC)c3)cs2)cc1
17 | 1.94 µM | – | COc1ccc2nc3cc(Cl)ccc3c(Nc3cc(C(C)C)c(O)cc3C)c2c1

More lines, now with the values behind:

Row | Structure (SMILES) | EC50 | Ki [µM]
18 | C#CCOCCOCCOCCNc1nc(N2CCN(C(=O)[C@H]([C@@H](C)CC)n3cc([C@@H](N)CO)nn3)CC2)nc(N2CCN(C(=O)[C@H](Cc3cc4ccccc4[nH]3)n3cc([C@@H](N)Cc4ccc(O)cc4)nn3)CC2)n1 | 0.52 µM | –
19 | CN1CCN(CC(=O)N2CCn3c4c(c5cc(C6CCCCC6)ccc53)CCCC42)CC1 (stereo unspecified) | > 30 µM (inactive) | –
20 | C#CCOCCOCCOCCNc1nc(N2CCN(C(=O)[C@H](Cc3ccc(O)cc3)n3cc([C@@H](N)CC(C)C)nn3)CC2)nc(N2CCN(C(=O)[C@H](Cc3ccc(O)cc3)n3cc([C@@H](N)CC(C)C)nn3)CC2)n1 | 8.71 µM | –
21 | CCCCCCCCCCCCCCCC[n+]1cccc2ccccc21 | > 30 µM (inactive) | –
22 | C#CCOCCOCCOCCNc1nc(N2CCN(C(=O)[C@H]([C@@H](C)CC)n3cc([C@@H](N)CC(C)C)nn3)CC2)nc(N2CCN(C(=O)[C@H](Cc3cc4ccccc4[nH]3)n3cc([C@@H](N)Cc4ccc(O)cc4)nn3)CC2)n1 | > 30 µM (inactive) | –
23 | NC(=O)CSc1nnc(Cc2ccc3c(c2)OCO3)o1 | > 30 µM (inactive) | –
24 | CN(c1ccccc1)c1ccc(/C=c2\s/c(=C(/C#N)C(=O)C(C)(C)C)n(Cc3ccco3)c2=O)cc1 | 0.67 µM | 0.6
25 | S=C(Nc1cccc(Cl)c1)N(CCCN1CCCC1)Cc1cccn1Cc1ccc(Cl)cc1 | 5.75 µM | –
26 | O=C1Nc2ccc(Br)cc2/C1=N/N=C/C1=C(N2CCOCC2)C(=C\c2ccccc2)/CC1 | 1.87 µM | 1.68
27 | C#CCOCCOCCOCCNc1nc(N2CCN(C(=O)[C@H]([C@@H](C)CC)n3cc([C@@H](N)CC(C)C)nn3)CC2)nc(N2CCN(C(=O)[C@H](Cc3cc4ccccc4[nH]3)n3cc([C@@H](N)CC(C)C)nn3)CC2)n1 | 7.74 µM | –
28 | CN1C(=CC=C2C=C(I)C(=O)C(I)=C2)C(C)(C)c2ccccc21 | 9.16 µM | 8.2
29 | CCCCCCCCCCOC(=O)Cn1c(COc2ccccc2)[n+](C)c2ccccc21 | 2.6 µM | –
30 | CCCCCc1cc(=O)oc2c(C(CCN3CCCC(C)C3)c3ccc4c(c3)OCO4)c(OC)cc(OC)c12 (stereo unspecified) | > 30 µM (inactive) | –
31 | CCCCCCOc1ccc(/C(C)=N/NC2=NCCN2)cc1[N+](=O)[O-] | 9.29 µM | –
32 | CN(C)c1ccc(NC(=O)CN2CCC(O)(c3ccccc3)CC2)cc1 | > 30 µM (inactive) | –
33 | C#CCOCCOCCOCCNc1nc(N2CCN(C(=O)[C@H]([C@@H](C)CC)n3cc([C@@H](N)Cc4ccc(O)cc4)nn3)CC2)nc(N2CCN(C(=O)[C@H](Cc3cc4ccccc4[nH]3)n3cc([C@@H](N)C(C)CC)nn3)CC2)n1 (stereo partly specified) | 3.73 µM | –
34 | CCN1/C(=C/C=C/C=C/C=C/c2sc3ccccc3[n+]2CC)Sc2ccccc21 | > 30 µM (inactive) | –
35 | C#CCOCCOCCOCCNc1nc(N2CCN(C(=O)[C@H](CCCCN)n3cc([C@@H](N)CC(C)C)nn3)CC2)nc(N2CCN(C(=O)[C@H](Cc3cc4ccccc4[nH]3)n3cc([C@@H](N)Cc4ccc(O)cc4)nn3)CC2)n1 | > 30 µM (inactive) | –
36 | CC(C)n1cc(CN2CCC(C(=O)Nc3cccc(-c4cccc(Cl)c4)c3)CC2)cn1 | > 30 µM (inactive) | –
37 | COc1ccc(C2NCCc3c2[nH]c2ccccc32)cc1CN1CCc2cc(OC)c(OC)cc2C1C (stereo unspecified) | 10.5 µM | –
38 | CCN1C(c2ccccc2)=C(c2ccccc2)S/C1=C\C=C1/SC(=S)N(C)C1=O | 3.38 µM | 3.02
39 | CCCN1C(=O)/C(=C\C=C2/Sc3ccccc3N2CC)SC1=S | 3.03 µM | 2.71
40 | CN(C)CCNc1ncnc2c1sc1nc(-c3ccccc3)c3c(c12)CCCC3 | 3.37 µM | –
